Measurements from patent US8268858B2, “Compounds and methods for kinase modulation, and indications therefor” (Plexxikon Inc., priority 2006, dated 2012).
pIC50: −log10 of the molar value.

What was measured:
Type in all cases: biochemical
[1] = biological target: Jnk1 (Homo sapiens, UniProt P45983); assay: Kinase activity assay, Jnk1; conditions: under the test conditions employed; read-out: activity toward kinase Jnk1, IC50
Experimental: (§1) The effect of potential modulators of kinase activity of c-kit and other kinases can be measured in a variety of different assays known in the art, e.g., biochemical assays, cell-based assays, and in vivo testing (e.g. model system testing). Such in vitro and/or in vivo assays and tests can be used in the present invention. As an exemplary kinase assay, the kinase activity of c-kit or Fms is measured in AlphaScreening (Packard BioScience). Assays for the activity of various kinases are described, for example, in U.S. patent application Ser. No. 11/473,347 (see also, PCT publication WO2007002433), the disclosure of which is hereby incorporated by reference.

[2] = biological target: Kit (Homo sapiens, UniProt P10721); assay: Kinase activity assay, Kit; conditions: under the test conditions employed; read-out: activity toward kinase Kit, IC50
Experimental: as §1

[3] = biological target: Kdr (Homo sapiens, UniProt P35968); assay: Kinase activity assay, Kdr; conditions: under the test conditions employed; read-out: activity toward kinase Kdr, IC50
Experimental: as §1

[4] = biological target: B-Raf V600E/T529I (Homo sapiens, UniProt P15056, T529I/V600E); assay: Kinase activity assay, B-Raf V600E/T529I; conditions: under the test conditions employed; read-out: activity toward kinase B-Raf V600E/T529I, IC50
Experimental: as §1

[5] = biological target: B-Raf V600E (Homo sapiens, UniProt P15056, V600E); assay: Kinase activity assay, B-Raf V600E; conditions: under the test conditions employed; read-out: activity toward kinase B-Raf V600E, IC50
Experimental: as §1

[6] = biological target: B-Raf (Homo sapiens, UniProt P15056); assay: Kinase activity assay, B-Raf; conditions: under the test conditions employed; read-out: activity toward kinase B-Raf, IC50
Experimental: as §1

[7] = biological target: Flt1 (Homo sapiens, UniProt P17948); assay: Kinase activity assay, Flt1; conditions: under the test conditions employed; read-out: activity toward kinase Flt1, IC50
Experimental: as §1

[8] = biological target: Src (Homo sapiens, UniProt P12931); assay: Kinase activity assay, Src; conditions: under the test conditions employed; read-out: activity toward kinase Src, IC50
Experimental: as §1

[9] = biological target: Fms (Homo sapiens, UniProt P07333); assay: Kinase activity assay, Fms; conditions: under the test conditions employed; read-out: activity toward kinase Fms, IC50
Experimental: as §1

[10] = biological target: c-Raf-1 (Homo sapiens, UniProt P04049); assay: Kinase activity assay, c-Raf-1; conditions: under the test conditions employed; read-out: activity toward kinase c-Raf-1, IC50
Experimental: as §1

[11] = biological target: Btk (Homo sapiens, UniProt Q06187); assay: Kinase activity assay, Btk; conditions: under the test conditions employed; read-out: activity toward kinase Btk, IC50
Experimental: as §1

Chain of Src (P12931 whole entry): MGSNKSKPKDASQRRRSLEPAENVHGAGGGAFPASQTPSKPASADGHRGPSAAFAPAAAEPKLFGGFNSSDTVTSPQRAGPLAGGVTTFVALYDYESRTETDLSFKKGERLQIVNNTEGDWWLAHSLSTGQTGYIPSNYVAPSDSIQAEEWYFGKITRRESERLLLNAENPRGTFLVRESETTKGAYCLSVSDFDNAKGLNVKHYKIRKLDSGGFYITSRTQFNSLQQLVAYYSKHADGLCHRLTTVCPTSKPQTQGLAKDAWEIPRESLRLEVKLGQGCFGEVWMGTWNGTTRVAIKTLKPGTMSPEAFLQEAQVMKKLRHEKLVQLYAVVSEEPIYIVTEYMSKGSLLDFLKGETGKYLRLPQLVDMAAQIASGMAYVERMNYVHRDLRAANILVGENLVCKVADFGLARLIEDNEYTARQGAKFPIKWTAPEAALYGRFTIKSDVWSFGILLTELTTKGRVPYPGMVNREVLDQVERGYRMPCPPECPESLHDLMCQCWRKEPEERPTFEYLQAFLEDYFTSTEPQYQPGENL
Chain of Jnk1 (P45983 whole entry): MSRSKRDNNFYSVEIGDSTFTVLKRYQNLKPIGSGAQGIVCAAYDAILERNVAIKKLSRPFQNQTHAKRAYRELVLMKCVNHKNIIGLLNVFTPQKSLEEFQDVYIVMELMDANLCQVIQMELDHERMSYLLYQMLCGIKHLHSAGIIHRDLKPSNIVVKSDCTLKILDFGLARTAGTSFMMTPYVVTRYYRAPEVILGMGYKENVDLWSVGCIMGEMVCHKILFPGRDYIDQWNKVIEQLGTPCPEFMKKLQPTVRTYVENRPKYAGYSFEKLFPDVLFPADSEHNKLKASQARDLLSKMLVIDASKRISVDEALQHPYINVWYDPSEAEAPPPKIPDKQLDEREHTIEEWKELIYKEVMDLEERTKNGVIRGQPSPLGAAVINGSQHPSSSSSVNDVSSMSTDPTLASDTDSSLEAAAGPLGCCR
Chain of Fms (P07333 20-972): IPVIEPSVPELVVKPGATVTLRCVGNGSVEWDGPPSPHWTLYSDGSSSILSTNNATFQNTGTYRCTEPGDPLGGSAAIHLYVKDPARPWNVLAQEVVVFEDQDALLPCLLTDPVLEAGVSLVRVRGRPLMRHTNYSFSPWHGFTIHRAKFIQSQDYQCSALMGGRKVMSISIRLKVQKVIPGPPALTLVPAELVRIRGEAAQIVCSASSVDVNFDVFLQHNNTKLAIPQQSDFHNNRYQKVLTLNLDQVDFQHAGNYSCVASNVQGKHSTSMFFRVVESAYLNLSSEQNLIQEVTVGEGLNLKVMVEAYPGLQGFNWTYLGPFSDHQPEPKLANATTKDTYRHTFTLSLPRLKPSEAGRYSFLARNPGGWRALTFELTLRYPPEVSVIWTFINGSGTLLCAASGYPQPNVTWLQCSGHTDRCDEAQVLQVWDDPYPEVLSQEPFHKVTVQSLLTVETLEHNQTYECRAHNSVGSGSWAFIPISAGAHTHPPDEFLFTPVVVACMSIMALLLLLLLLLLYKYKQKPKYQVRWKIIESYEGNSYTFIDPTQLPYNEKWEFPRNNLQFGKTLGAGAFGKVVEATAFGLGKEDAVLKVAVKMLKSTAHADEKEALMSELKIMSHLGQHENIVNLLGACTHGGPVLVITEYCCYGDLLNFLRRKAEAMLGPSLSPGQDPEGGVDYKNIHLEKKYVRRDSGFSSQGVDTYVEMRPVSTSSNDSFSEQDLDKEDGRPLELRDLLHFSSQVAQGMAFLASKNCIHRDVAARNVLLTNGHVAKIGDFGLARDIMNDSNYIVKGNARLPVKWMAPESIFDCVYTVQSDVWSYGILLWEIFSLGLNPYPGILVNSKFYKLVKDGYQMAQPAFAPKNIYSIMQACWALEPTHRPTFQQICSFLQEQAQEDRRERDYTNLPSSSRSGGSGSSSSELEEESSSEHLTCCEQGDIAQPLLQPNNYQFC
Chain of B-Raf (P15056 whole entry): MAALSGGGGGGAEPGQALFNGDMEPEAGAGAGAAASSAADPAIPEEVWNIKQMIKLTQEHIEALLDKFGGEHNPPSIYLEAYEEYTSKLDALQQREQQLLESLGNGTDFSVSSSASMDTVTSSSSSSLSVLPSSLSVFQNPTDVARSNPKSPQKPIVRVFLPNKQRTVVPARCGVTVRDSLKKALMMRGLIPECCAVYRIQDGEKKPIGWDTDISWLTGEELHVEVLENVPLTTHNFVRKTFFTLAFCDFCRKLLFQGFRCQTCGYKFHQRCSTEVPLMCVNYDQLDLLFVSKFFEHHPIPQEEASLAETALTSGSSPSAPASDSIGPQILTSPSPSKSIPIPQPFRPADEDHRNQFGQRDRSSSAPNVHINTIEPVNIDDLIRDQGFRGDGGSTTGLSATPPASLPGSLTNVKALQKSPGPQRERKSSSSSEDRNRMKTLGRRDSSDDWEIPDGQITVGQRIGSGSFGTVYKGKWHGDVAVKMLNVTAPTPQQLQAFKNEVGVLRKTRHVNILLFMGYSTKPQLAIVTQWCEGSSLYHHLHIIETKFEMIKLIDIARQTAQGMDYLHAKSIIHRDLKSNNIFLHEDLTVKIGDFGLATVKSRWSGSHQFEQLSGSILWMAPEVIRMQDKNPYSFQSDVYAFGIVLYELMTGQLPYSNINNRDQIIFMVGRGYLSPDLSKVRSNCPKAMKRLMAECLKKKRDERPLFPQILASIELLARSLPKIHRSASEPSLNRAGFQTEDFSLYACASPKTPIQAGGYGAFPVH
Chain of Kdr (P35968 20-1356): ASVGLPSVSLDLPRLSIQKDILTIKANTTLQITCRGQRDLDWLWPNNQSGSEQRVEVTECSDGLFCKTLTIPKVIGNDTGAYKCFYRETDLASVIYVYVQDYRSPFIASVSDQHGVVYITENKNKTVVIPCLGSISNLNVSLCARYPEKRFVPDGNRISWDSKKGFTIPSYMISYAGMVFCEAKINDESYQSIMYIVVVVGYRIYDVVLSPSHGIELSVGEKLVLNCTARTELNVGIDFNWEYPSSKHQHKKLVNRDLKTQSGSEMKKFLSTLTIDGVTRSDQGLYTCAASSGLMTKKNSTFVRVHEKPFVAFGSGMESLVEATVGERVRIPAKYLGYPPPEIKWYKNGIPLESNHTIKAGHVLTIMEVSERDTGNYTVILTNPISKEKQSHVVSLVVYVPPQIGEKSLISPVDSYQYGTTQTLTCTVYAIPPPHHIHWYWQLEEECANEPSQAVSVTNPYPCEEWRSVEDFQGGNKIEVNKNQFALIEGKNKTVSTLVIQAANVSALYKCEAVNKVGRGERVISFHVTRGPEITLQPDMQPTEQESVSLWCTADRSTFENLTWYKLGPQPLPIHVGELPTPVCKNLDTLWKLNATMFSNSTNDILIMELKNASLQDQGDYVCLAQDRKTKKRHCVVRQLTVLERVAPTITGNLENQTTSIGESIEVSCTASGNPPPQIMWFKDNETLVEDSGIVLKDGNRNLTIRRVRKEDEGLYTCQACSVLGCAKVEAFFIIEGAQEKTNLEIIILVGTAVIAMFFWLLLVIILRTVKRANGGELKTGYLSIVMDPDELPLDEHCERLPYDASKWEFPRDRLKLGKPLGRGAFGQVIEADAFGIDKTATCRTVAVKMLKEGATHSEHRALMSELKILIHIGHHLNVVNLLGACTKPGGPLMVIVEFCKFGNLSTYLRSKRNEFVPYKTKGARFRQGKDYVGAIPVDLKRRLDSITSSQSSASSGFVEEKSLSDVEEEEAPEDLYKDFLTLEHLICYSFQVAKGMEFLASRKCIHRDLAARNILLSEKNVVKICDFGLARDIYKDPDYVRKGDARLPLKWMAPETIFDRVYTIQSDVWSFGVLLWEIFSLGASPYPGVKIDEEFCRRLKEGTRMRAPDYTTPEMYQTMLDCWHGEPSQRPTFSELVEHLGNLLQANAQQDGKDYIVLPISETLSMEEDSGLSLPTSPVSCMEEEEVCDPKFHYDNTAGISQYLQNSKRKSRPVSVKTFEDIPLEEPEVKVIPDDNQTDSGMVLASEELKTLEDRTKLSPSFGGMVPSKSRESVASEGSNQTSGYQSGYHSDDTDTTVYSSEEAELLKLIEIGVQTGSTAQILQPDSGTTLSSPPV
Chain of B-Raf V600E (P15056 whole entry V600E): as the sequence (P15056 whole entry) above, with V600E counted along it
Chain of B-Raf V600E/T529I (P15056 whole entry T529I/V600E): as the sequence (P15056 whole entry) above, with T529I, V600E counted along it
Chain of Kit (P10721 26-976): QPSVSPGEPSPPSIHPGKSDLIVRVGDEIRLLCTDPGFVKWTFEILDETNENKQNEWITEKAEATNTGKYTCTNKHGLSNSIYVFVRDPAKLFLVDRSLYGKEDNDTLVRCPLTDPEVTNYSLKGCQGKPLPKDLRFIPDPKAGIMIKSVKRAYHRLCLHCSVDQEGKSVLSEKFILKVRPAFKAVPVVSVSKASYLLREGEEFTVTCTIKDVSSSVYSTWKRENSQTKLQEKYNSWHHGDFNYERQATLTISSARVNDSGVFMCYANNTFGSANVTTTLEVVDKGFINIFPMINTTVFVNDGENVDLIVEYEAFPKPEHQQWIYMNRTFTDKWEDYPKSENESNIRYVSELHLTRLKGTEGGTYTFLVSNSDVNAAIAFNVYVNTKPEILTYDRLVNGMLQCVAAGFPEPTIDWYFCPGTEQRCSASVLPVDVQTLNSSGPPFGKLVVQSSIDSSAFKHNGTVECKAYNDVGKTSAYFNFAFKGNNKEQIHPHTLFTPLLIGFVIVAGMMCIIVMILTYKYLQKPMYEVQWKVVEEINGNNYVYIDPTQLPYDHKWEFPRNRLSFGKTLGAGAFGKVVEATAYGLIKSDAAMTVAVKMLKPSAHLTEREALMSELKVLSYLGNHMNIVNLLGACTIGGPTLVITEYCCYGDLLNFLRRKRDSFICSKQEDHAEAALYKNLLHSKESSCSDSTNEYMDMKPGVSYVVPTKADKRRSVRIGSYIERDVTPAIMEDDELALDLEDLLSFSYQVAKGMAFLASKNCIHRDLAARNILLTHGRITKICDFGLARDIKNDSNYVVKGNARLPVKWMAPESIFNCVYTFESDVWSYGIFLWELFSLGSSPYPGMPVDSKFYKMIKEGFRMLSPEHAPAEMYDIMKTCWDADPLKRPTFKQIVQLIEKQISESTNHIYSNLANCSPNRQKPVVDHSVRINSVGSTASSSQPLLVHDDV

SMILES	pIC50 [2]	pIC50 [3]	pIC50 [4]	pIC50 [5]	pIC50 [6]	pIC50 [9]	other results
c1cc2cc(OC3CCCC3)cnc2[nH]1 [P-0001, 5-cyclopentyloxy-1H-pyrrolo[2,3-b]pyridine]	≥ 5.00	≥ 5.00	–	–	–	–	pIC50 [1]: ≥ 5.00
c1ccc(COc2cnc3[nH]ccc3c2)cc1 [P-0002, 5-(benzyloxy)-1H-pyrrolo[2,3-b]pyridine]	≥ 5.00	≥ 5.00	–	–	–	–	pIC50 [1]: ≥ 5.00
COc1cccc(COc2cnc3[nH]ccc3c2)c1 [P-0003, 5-(3-methoxybenzyloxy)-1H-pyrrolo[2,3-b]pyridine]	–	≥ 5.00	–	–	–	–	–
COc1ccc(COc2cnc3[nH]ccc3c2)c(OC)c1 [P-0008, 5-(2,4-dimethoxybenzyloxy)-1H-pyrrolo[2,3-b]pyridine]	–	–	≥ 5.00	–	–	–	–
COCCOc1cnc2[nH]ccc2c1 [P-0009, 5-(2-methoxyethoxy)-1H-pyrrolo[2,3-b]pyridine]	–	–	–	≥ 5.00	≥ 5.00	–	–
FC(F)Oc1ccc(COc2cnc3[nH]ccc3c2)cc1 [P-0014, 5-(4-(difluoromethoxy)benzyloxy)-1H-pyrrolo[2,3-b]pyridine]	–	≥ 5.00	–	–	–	–	–
c1cc2cc(OCC3CCOCC3)cnc2[nH]1 [P-0019, 5-((tetrahydro-2H-pyran-4-yl)methoxy)-1H-pyrrolo[2,3-b]pyridine]	–	–	–	≥ 5.00	≥ 5.00	–	–
c1ccc(CN2CC[C@H](Oc3cnc4[nH]ccc4c3)C2)cc1 [P-0026, 5-((S)-1-benzylpyrrolidin-3-yloxy)-1H-pyrrolo[2,3-b]pyridine]	–	–	–	–	≥ 5.00	–	–
c1ccc(Oc2cnc3[nH]ccc3c2)cc1 [P-0035, 5-phenoxy-1H-pyrrolo[2,3-b]pyridine]	≥ 5.00	≥ 5.00	–	–	–	≥ 5.00	–
O=C(c1ccc(Cl)cc1Cl)c1c[nH]c2ncc(Oc3ccccc3)cc12 [P-0036, (2,4-dichloro-phenyl)-(5-phenoxy-1H-pyrrolo[2,3-b]pyridin-3-yl)-methanone]	≥ 5.00	≥ 5.00	–	–	–	≥ 5.00	pIC50 [11]: ≥ 5.00
Clc1ccc(Cc2c[nH]c3ncc(Oc4ccccc4)cc23)c(Cl)c1 [P-0037, 3-(2,4-dichloro-benzyl)-5-phenoxy-1H-pyrrolo[2,3-b]pyridine]	≥ 5.00	≥ 5.00	–	–	–	≥ 5.00	–
O=C(O)Cc1cccc(Oc2cnc3[nH]cc(C(=O)c4ccc(F)cc4Cl)c3c2)c1 [P-0039, {3-[3-(2-Chloro-4-fluoro-benzoyl)-1H-pyrrolo[2,3-b]pyridin-5-yloxy]-phenyl}-acetic acid]	≥ 5.00	≥ 5.00	≥ 5.00	–	–	≥ 5.00	pIC50 [11]: ≥ 5.00
O=C(c1ccc2cc[nH]c2c1)c1c[nH]c2ncc(OC3CCCC3)cc12 [P-0040, (5-Cyclopentyloxy-1H-pyrrolo[2,3-b]pyridin-3-yl)-(1H-indol-6-yl)-methanone]	≥ 5.00	≥ 5.00	≥ 5.00	–	–	≥ 5.00	pIC50 [7]: ≥ 5.00; pIC50 [1]: ≥ 5.00

Continued, in another order:

pIC50 [2]	pIC50 [3]	pIC50 [4]	pIC50 [5]	pIC50 [6]	pIC50 [9]	SMILES	other results
≥ 5.00	≥ 5.00	≥ 5.00	≥ 5.00	≥ 5.00	≥ 5.00	CCCS(=O)(=O)Nc1ccc(F)c(C(=O)c2c[nH]c3ncc(OC4CCCC4)cc23)c1F [P-0033, propane-1-sulfonic acid [3-(5-cyclopentyloxy-1H-pyrrolo[2,3-b]pyridine-3-carbonyl)-2,4-difluoro-phenyl]-amide]	pIC50 [7]: ≥ 5.00; pIC50 [1]: ≥ 5.00; pIC50 [8]: ≥ 5.00; pIC50 [10]: ≥ 5.00
–	≥ 5.00	≥ 5.00	≥ 5.00	≥ 5.00	–	CCCS(=O)(=O)Nc1ccc(F)c(C(=O)c2c[nH]c3ncc(OCc4ccccc4)cc23)c1F [P-0034, Propane-1-sulfonic acid [3-(5-benzyloxy-1H-pyrrolo[2,3-b]pyridine-3-carbonyl)-2,4-difluoro-phenyl]-amide]	pIC50 [7]: ≥ 5.00; pIC50 [10]: ≥ 5.00
–	≥ 5.00	–	–	–	–	CS(=O)(=O)c1ccc(Oc2cnc3[nH]cc(C(=O)c4ccc(F)cc4Cl)c3c2)cc1 [P-0038, (2-Chloro-4-fluoro-phenyl)-[5-(4-methanesulfonyl-phenoxy)-1H-pyrrolo[2,3-b]pyridin-3-yl]-methanone]	pIC50 [7]: ≥ 5.00
–	≥ 5.00	–	≥ 5.00	≥ 5.00	–	CCCS(=O)(=O)Nc1ccc(F)c(C(=O)c2c[nH]c3ncc(OCCN4CCOCC4)cc23)c1F [P-0041, Propane-1-sulfonic acid {2,4-difluoro-3-[5-(2-morpholin-4-yl-ethoxy)-1H-pyrrolo[2,3-b]pyridine-3-carbonyl]-phenyl}-amide]	pIC50 [8]: ≥ 5.00
≥ 5.00	≥ 5.00	≥ 5.00	≥ 5.00	≥ 5.00	≥ 5.00	CCCS(=O)(=O)Nc1ccc(F)c(C(=O)c2c[nH]c3ncc(OC4CCOCC4)cc23)c1F [P-0045, Propane-1-sulfonic acid {2,4-difluoro-3-[5-(tetrahydro-pyran-4-yloxy)-11H-pyrrolo[2,3-b]pyridine-3-carbonyl]-phenyl}-amide]	pIC50 [8]: ≥ 5.00
–	≥ 5.00	–	≥ 5.00	≥ 5.00	–	CCCS(=O)(=O)Nc1ccc(F)c(C(=O)c2c[nH]c3ncc(S(=O)(=O)c4ccc(C)cc4)cc23)c1F [P-0047, Propane-1-sulfonic acid {2,4-difluoro-3-[5-(toluene-4-sulfonyl)-1H-pyrrolo[2,3-b]pyridine-3-carbonyl]-phenyl}-amide]	–
